Experimental data: patent publication US6737383B1, “Herbicidal oxadiazolidines” (priority 1999, dated 2004)

What was measured:
[1] = system: surinam grass; assay: Test B pre/postemergence surinam grass; format: in vivo, Brachiaria decumbens
Outline: (§1)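 Test chemicals in a non-phytotoxic solvent mixture with surfactant were sprayed preemergence onto planted seeds and postemergence onto plants 2 to 18 cm tall (1- to 4-leaf stage). After twelve to sixteen days in a greenhouse, injury was visually rated against untreated controls from 0 (no effect) to 10 (complete control).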

[2] = system: cocklebur; assay: Test B pre/postemergence cocklebur; format: in vivo, Xanthium strumarium
Outline: as §1

[3] = system: corn; assay: Test B pre/postemergence corn; format: in vivo, Zea mays
Outline: as §1

[4] = system: crabgrass; assay: Test B pre/postemergence crabgrass; format: in vivo, Digitaria sanguinalis
Outline: as §1

[5] = system: giant foxtail; assay: Test B pre/postemergence giant foxtail; format: in vivo, Setaria faberii
Outline: as §1

[6] = system: pigweed; assay: Test B pre/postemergence pigweed; format: in vivo, Amaranthus retroflexus
Outline: as §1

[7] = system: rape; assay: Test B pre/postemergence rape; format: in vivo, Brassica napus
Outline: as §1

[8] = system: soybean; assay: Test B pre/postemergence soybean; format: in vivo, Glycine max
Outline: as §1

[9] = system: sugar beet; assay: Test B pre/postemergence sugar beet; format: in vivo, Beta vulgaris
Outline: as §1

[10] = system: velvetleaf; assay: Test B pre/postemergence velvetleaf; format: in vivo, Abutilon theophrasti
Outline: as §1

[11] = system: wheat; assay: Test B pre/postemergence wheat; format: in vivo, Triticum aestivum
Outline: as §1

[12] = system: wild oat; assay: Test B pre/postemergence wild oat; format: in vivo, Avena fatua
Outline: as §1

[13] = system: purple nutsedge; assay: Test B pre/postemergence purple nutsedge; format: in vivo, Cyperus rotundus
Outline: as §1

[14] = system: smallflower flatsedge; assay: Test B flood test smallflower flatsedge; format: in vivo, Cyperus difformis
Outline: (§2)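 Read-out is a visual response score from 0 (no effect) to 10 (complete control), assigned by comparison with untreated controls. Treatment was applied at the 2-leaf stage, and plants stayed in the greenhouse for twelve to sixteen days before scoring.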

[15] = system: duck salad; assay: Test B flood test duck salad; format: in vivo, Heteranthera limosa
Outline: as §2

[16] = system: bamyardgrass; assay: Test B flood test barnyardgrass; format: in vivo, Echinochloa crus-galli
Outline: as §2

[17] = Preemergence, Rate 62 g/ha, scale of 0 to 10 where 0 is no effect and 10 is complete control
[18] = Preemergence, Rate 250 g/ha, scale of 0 to 10 where 0 is no effect and 10 is complete control
[19] = Preemergence, Rate 500 g/ha, scale of 0 to 10 where 0 is no effect and 10 is complete control
[20] = Rate 62 g/ha, Postemergence, scale 0 to 10 (0 no effect, 10 complete control)
[21] = Rate 125 g/ha, Postemergence, scale of 0 to 10 where 0 is no effect and 10 is complete control
[22] = Rate 125 g/ha, Preemergence, scale of 0 to 10 where 0 is no effect and 10 is complete control
[23] = Rate 250 g/ha, Postemergence, scale of 0 to 10 where 0 is no effect and 10 is complete control
[24] = Rate 500 g/ha, Postemergence, scale 0 to 10, 0 no effect, 10 complete control
[25] = Rate 62 g/ha, headed Pre-emergence (flood test species), scale 0 to 10 (0 no effect, 10 complete control)
[26] = Rate 125 g/ha, Pre-emergence, flood test species, scale 0 to 10 where 0 is no effect and 10 is complete control
[27] = Rate 250 g/ha, Pre-emergence, flood-test species, scale 0 to 10, 0 is no effect, 10 is complete control
[28] = Rate 500 g/ha, Pre-emergence, flood test species, scale 0 to 10 (0 no effect, 10 complete control)

CCN(CC)C(=O)n1oc(=O)n(C2CC2)c1=O [Compound 297]
B. signalgrass plant response rating [1, 17]: 0
B. signalgrass plant response rating [1, 18]: 0
Plant response rating, B. signalgrass [1, 19]: 0
B. signalgrass plant response rating [1, 20]: 0
B. signalgrass plant response rating [1, 21]: 0
B. signalgrass plant response rating [1, 22]: 0
Plant response rating, B. signalgrass [1, 23]: 0
B. signalgrass plant response rating [1, 24]: 0
Cocklebur plant response rating [2, 17]: 0
Cocklebur plant response rating [2, 18]: 0
Plant response rating, Cocklebur [2, 19]: 0
Cocklebur plant response rating [2, 20]: 0
Cocklebur plant response rating [2, 21]: 0
Cocklebur plant response rating [2, 22]: 0
Plant response rating, Cocklebur [2, 23]: 0
Cocklebur plant response rating [2, 24]: 0
Corn plant response rating [3, 17]: 0
Corn plant response rating [3, 18]: 0
Plant response rating, Corn [3, 19]: 0
Corn plant response rating [3, 20]: 0
Corn plant response rating [3, 21]: 0
Corn plant response rating [3, 22]: 0
Plant response rating, Corn [3, 23]: 0
Corn plant response rating [3, 24]: 0
Crabgrass plant response rating [4, 17]: 0
Crabgrass plant response rating [4, 18]: 7
Plant response rating, Crabgrass [4, 19]: 7
Crabgrass plant response rating [4, 20]: 0
Crabgrass plant response rating [4, 21]: 0
Crabgrass plant response rating [4, 22]: 2
Plant response rating, Crabgrass [4, 23]: 0
Giant foxtail plant response rating [5, 17]: 0
Giant foxtail plant response rating [5, 18]: 7
Plant response rating, Giant foxtail [5, 19]: 7
Giant foxtail plant response rating [5, 20]: 0
Giant foxtail plant response rating [5, 21]: 0
Giant foxtail plant response rating [5, 22]: 0
Plant response rating, Giant foxtail [5, 23]: 0
Redroot pigweed plant response rating [6, 17]: 0
Redroot pigweed plant response rating [6, 18]: 0
Plant response rating, Redroot pigweed [6, 19]: 0
Redroot pigweed plant response rating [6, 20]: 0
Redroot pigweed plant response rating [6, 21]: 0
Redroot pigweed plant response rating [6, 22]: 0
Plant response rating, Redroot pigweed [6, 23]: 0
Rape plant response rating [7, 17]: 0
Rape plant response rating [7, 18]: 0
Plant response rating, Rape [7, 19]: 0
Rape plant response rating [7, 20]: 0
Rape plant response rating [7, 21]: 0
Rape plant response rating [7, 22]: 0
Plant response rating, Rape [7, 23]: 0
Soybean plant response rating [8, 17]: 0
Soybean plant response rating [8, 18]: 0
Plant response rating, Soybean [8, 19]: 0
Soybean plant response rating [8, 20]: 2
Soybean plant response rating [8, 21]: 3
Soybean plant response rating [8, 22]: 0
Plant response rating, Soybean [8, 23]: 3
Sugarbeets plant response rating [9, 17]: 0
Sugarbeets plant response rating [9, 18]: 0
Plant response rating, Sugarbeets [9, 19]: 0
Sugarbeets plant response rating [9, 20]: 0
Sugarbeets plant response rating [9, 21]: 0
Sugarbeets plant response rating [9, 22]: 0
Plant response rating, Sugarbeets [9, 23]: 0
Velvetleaf plant response rating [10, 17]: 0
Velvetleaf plant response rating [10, 18]: 0
Plant response rating, Velvetleaf [10, 19]: 0
Velvetleaf plant response rating [10, 20]: 0
Velvetleaf plant response rating [10, 21]: 0
Velvetleaf plant response rating [10, 22]: 0
Plant response rating, Velvetleaf [10, 23]: 0
Wheat plant response rating [11, 17]: 0
Wheat plant response rating [11, 18]: 0
Plant response rating, Wheat [11, 19]: 0
Wheat plant response rating [11, 20]: 0
Wheat plant response rating [11, 21]: 0
Wheat plant response rating [11, 22]: 0
Plant response rating, Wheat [11, 23]: 0
Wild oats plant response rating [12, 17]: 0
Wild oats plant response rating [12, 18]: 0
Plant response rating, Wild oats [12, 19]: 0
Wild oats plant response rating [12, 20]: 0
Wild oats plant response rating [12, 21]: 0
Plant response rating, Wild oats [12, 23]: 0
Nutsedge plant response rating [13, 18]: 0
Plant response rating, Nutsedge [13, 19]: 0
Nutsedge plant response rating [13, 20]: 0
Nutsedge plant response rating [13, 21]: 0
Nutsedge plant response rating [13, 22]: 0
Plant response rating, Nutsedge [13, 23]: 0
S. Flatsedge plant response rating [14, 25]: 0
S. Flatsedge plant response rating [14, 26]: 0
S. Flatsedge plant response rating [14, 27]: 3
S. Flatsedge plant response rating [14, 28]: 3
Ducksalad plant response rating [15, 25]: 0
Ducksalad plant response rating [15, 26]: 0
Ducksalad plant response rating [15, 27]: 0
Ducksalad plant response rating [15, 28]: 0
Barnyardgrass plant response rating [16, 25]: 0
Barnyardgrass plant response rating [16, 26]: 0
Barnyardgrass plant response rating [16, 27]: 0
Barnyardgrass plant response rating [16, 28]: 0
